Key:
[1] = biological target: T1, Equilibrative nucleoside transporter 1 (Homo sapiens, UniProt Q99808)
T1 sequence (Q99808 whole entry): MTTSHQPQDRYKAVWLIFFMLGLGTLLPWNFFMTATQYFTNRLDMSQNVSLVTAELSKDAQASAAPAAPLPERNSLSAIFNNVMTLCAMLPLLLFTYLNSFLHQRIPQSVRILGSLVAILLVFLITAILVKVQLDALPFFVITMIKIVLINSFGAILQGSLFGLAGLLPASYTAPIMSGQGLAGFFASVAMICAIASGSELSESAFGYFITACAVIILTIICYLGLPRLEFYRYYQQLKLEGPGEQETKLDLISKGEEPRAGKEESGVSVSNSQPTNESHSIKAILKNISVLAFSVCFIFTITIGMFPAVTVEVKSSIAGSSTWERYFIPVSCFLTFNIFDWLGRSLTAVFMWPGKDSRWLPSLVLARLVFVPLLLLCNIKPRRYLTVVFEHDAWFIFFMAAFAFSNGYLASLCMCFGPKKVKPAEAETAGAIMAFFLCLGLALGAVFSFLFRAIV

[2] = biological target: Voltage-dependent L-type calcium channel subunit alpha-1C (Rattus norvegicus, UniProt P22002); assay type: functional
[3] = biological target: T2, Type-1 angiotensin II receptor (Homo sapiens, UniProt P30556)
T2 sequence (P30556 whole entry): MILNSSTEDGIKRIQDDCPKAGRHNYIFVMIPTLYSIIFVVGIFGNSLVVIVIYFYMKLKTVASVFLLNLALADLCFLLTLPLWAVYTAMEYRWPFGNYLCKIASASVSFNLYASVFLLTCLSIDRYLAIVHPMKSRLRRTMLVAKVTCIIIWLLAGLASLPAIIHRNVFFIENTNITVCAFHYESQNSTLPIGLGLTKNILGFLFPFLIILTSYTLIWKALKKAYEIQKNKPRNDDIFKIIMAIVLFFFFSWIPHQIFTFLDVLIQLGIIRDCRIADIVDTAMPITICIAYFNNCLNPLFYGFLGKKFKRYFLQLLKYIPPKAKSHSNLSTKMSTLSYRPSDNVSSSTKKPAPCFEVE

Endothelin-1 receptor = biological target: T3, Endothelin-1 receptor (Homo sapiens, UniProt P25101)
T3 sequence (P25101 whole entry): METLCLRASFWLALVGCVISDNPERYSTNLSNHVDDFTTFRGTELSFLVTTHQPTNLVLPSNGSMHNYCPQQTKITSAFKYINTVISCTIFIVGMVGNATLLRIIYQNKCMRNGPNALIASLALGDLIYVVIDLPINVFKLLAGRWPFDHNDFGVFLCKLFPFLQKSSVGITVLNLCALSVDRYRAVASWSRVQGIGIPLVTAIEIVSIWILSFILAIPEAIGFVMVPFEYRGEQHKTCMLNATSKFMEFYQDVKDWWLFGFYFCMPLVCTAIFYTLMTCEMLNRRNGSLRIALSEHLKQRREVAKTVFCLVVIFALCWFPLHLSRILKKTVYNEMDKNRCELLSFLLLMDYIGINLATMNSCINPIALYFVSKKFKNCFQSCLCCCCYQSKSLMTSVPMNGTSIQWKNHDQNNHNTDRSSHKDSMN

Motilin receptor = Motilin receptor (Homo sapiens, UniProt O43193)
Chain of Motilin receptor (O43193 whole entry): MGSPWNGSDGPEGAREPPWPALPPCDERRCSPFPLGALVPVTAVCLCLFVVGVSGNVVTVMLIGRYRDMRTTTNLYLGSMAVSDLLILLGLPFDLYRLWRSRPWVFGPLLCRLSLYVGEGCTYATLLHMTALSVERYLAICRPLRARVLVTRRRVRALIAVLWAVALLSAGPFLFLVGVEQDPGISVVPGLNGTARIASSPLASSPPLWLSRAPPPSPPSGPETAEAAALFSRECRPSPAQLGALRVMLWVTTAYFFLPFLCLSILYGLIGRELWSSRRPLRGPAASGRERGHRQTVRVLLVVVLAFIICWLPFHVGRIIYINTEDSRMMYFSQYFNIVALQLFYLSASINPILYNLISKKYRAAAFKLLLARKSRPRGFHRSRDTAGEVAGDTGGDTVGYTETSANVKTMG

[4] = biological target: Voltage-gated inwardly rectifying potassium channel KCNH2 (Homo sapiens, UniProt Q12809); assay type: functional; details: read-out: AC50
Chain of Voltage-gated inwardly rectifying potassium channel KCNH2 (Q12809 whole entry): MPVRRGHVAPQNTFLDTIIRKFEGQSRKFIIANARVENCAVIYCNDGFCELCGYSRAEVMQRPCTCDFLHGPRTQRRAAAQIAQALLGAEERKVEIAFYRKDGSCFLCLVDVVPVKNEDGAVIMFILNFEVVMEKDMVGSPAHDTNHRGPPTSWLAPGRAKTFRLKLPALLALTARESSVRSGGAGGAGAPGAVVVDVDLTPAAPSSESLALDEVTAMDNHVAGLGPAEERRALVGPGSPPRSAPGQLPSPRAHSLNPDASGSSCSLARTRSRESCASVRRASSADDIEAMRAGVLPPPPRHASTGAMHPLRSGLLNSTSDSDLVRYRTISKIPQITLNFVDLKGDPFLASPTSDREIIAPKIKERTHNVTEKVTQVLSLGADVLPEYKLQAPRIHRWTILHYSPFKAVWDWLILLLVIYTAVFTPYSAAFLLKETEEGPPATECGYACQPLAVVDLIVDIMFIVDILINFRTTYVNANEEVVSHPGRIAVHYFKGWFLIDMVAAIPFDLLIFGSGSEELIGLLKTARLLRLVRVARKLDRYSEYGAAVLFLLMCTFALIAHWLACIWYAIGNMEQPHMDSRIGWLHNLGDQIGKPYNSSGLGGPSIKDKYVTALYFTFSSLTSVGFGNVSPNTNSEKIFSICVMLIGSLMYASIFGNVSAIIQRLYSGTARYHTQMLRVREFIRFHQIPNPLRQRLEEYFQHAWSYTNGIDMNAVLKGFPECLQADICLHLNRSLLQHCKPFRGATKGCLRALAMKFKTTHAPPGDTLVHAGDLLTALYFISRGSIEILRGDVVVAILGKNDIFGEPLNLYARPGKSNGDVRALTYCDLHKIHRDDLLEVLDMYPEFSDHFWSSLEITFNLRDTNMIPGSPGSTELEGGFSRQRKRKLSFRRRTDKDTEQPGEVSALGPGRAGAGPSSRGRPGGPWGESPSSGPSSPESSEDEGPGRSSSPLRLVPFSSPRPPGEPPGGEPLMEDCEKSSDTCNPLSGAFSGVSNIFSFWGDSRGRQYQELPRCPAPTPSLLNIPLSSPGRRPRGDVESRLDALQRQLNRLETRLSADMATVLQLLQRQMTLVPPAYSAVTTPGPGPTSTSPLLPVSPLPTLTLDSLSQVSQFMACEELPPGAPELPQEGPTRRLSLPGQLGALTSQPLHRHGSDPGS

Vasopressin V1a receptor = Vasopressin V1a receptor (Homo sapiens, UniProt P37288)
Chain of Vasopressin V1a receptor (P37288 whole entry): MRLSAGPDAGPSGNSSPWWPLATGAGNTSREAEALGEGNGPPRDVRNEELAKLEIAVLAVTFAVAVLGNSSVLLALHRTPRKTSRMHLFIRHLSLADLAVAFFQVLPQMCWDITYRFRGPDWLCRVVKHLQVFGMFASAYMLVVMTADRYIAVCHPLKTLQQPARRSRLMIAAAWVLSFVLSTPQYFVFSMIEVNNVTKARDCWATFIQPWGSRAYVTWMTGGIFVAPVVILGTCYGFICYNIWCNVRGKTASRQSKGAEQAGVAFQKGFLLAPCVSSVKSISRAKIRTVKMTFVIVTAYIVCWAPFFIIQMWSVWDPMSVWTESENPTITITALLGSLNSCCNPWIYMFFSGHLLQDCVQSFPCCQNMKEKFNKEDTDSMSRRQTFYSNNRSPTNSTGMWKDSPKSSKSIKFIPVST

[5] = biological target: 5-hydroxytryptamine receptor 2B (Homo sapiens, UniProt P41595); assay type: functional, cell-based
Chain of 5-hydroxytryptamine receptor 2B (P41595 whole entry): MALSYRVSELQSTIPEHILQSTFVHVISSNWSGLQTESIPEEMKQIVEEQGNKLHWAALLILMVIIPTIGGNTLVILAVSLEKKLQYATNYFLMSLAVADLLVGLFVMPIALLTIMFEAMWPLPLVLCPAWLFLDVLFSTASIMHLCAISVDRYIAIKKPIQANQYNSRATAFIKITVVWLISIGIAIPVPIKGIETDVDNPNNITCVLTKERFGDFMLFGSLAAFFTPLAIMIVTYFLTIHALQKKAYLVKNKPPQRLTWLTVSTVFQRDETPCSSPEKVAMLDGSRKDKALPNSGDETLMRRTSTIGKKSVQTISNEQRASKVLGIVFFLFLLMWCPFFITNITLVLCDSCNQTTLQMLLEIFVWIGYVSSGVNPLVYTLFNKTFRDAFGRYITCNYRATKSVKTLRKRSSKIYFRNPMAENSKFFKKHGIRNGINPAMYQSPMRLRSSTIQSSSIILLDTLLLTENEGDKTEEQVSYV

[6] = biological target: Delta-type opioid receptor (Homo sapiens, UniProt P41143)
Chain of Delta-type opioid receptor (P41143 whole entry): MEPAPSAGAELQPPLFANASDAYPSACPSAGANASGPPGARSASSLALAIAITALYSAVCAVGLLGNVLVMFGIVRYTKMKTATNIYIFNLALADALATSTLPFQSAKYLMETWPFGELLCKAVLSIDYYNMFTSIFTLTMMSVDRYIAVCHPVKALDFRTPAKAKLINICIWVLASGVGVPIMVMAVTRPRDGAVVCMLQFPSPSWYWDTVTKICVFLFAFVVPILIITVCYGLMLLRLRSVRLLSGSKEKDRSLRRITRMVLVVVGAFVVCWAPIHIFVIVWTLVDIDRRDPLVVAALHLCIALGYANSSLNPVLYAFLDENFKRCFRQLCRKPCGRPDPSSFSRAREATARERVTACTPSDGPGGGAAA

[7] = biological target: Sodium-dependent serotonin transporter (Homo sapiens, UniProt P31645)
Chain of Sodium-dependent serotonin transporter (P31645 whole entry): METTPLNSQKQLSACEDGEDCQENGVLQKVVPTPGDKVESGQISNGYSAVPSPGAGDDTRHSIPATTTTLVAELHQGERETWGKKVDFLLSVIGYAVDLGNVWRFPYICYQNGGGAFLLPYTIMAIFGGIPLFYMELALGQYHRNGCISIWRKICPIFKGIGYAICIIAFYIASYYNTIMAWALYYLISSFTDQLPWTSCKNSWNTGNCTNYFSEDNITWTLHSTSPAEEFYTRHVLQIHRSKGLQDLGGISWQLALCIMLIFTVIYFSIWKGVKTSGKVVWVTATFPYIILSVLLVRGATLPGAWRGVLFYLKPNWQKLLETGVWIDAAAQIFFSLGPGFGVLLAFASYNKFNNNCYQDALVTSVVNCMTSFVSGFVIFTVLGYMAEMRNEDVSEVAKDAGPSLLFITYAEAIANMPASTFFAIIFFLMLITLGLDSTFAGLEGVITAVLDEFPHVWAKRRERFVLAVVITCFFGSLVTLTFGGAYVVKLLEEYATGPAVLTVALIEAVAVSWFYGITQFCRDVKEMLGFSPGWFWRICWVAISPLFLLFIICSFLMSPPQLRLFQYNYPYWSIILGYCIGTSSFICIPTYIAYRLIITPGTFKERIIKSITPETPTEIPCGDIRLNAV

[8] = biological target: T4, Neuropeptide Y receptor type 1 (Homo sapiens, UniProt P25929)
T4 sequence (P25929 whole entry): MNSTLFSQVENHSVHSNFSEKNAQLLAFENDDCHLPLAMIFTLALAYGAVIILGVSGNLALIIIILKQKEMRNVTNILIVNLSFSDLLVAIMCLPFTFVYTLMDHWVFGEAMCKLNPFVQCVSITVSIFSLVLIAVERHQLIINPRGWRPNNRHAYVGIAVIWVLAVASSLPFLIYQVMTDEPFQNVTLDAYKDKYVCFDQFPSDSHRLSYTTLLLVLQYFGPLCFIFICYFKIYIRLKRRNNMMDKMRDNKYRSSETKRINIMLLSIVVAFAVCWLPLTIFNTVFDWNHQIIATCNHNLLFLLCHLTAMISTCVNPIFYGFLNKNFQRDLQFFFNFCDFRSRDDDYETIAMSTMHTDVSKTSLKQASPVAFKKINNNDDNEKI

Glucocorticoid receptor = biological target: T5, Glucocorticoid receptor (Homo sapiens, UniProt P04150)
T5 sequence (P04150 whole entry): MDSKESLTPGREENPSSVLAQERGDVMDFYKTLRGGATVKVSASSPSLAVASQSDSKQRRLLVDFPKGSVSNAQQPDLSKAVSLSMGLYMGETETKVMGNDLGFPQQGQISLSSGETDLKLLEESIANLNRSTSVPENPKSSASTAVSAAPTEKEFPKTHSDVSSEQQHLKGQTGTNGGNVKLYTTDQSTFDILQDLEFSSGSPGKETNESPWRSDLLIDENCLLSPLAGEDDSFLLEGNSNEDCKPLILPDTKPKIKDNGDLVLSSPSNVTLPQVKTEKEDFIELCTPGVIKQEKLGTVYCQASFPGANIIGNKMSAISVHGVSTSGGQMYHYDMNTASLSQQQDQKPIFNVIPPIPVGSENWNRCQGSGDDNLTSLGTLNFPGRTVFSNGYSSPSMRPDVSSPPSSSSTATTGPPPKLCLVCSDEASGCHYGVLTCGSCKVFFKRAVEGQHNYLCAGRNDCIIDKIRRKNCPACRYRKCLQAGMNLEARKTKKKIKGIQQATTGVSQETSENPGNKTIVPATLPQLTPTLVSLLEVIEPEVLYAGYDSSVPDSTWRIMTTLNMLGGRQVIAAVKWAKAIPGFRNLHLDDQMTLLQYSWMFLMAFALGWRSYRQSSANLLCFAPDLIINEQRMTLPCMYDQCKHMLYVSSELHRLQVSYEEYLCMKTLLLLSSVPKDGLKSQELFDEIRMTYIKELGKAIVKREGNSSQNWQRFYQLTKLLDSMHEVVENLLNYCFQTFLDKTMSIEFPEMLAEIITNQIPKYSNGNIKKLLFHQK

[9] = biological target: Glutamate receptor ionotropic, NMDA 1 (Rattus norvegicus, UniProt P35439)
[10] = biological target: 5-hydroxytryptamine receptor 2A (Homo sapiens, UniProt P28223); assay type: functional, cell-based
Chain of 5-hydroxytryptamine receptor 2A (P28223 whole entry): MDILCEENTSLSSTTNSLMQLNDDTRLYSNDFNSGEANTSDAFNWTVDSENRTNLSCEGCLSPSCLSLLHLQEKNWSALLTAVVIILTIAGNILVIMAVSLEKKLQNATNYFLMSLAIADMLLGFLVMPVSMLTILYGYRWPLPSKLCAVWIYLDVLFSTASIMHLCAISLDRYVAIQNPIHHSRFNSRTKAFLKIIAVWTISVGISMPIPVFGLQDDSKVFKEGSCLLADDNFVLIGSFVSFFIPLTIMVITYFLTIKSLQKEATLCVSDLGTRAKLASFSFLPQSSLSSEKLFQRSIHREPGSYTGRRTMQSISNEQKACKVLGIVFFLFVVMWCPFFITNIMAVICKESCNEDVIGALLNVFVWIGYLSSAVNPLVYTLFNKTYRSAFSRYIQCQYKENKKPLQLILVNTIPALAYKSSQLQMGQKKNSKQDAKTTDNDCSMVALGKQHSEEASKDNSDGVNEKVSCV

Measured: AC50
Further: assay procedure not described here.

CC(=O)c1ccc2c(c1)N(CCCN1CCC(CCO)CC1)c1ccccc1S2 [PIPERACETAZINE]
1.3 µM: [7]
0.3 µM: [10]
0.5 µM: [4]
> 30 µM: all other assays above

CCCN(CC)C(CC)C(=O)Nc1c(C)cccc1C (stereo unspecified) [ETIDOCAINE]
> 30 µM: all assays above

N=C(N)NCCCCCCC(=O)NC(O)C(=O)NCCCCNCCCN (stereo unspecified)
> 30 µM: all assays above

CC(C)OC(=O)C(C(=O)OC(C)C)=C1SC=CS1 [MALOTILATE]
> 30 µM: all assays above

CCCCCCOC(=O)CCC(=O)CN [HEXAMINOLEVULINATE]
> 30 µM: all assays above

O=C(O)c1ccccc1Nc1cccc(C(F)(F)F)c1 [FLUFENAMIC ACID]
> 10 µM: [2] | Motilin receptor | [9]
> 30 µM: all other assays above

CCCOC(C(=O)OC1CCN(C)CC1)(c1ccccc1)c1ccccc1 [PROPIVERINE]
26 µM: [10]
3.2 µM: [4]
15 µM: Motilin receptor
> 30 µM: all other assays above

CC(CCc1ccccc1)NC(C)C(O)c1ccc(O)cc1 (stereo unspecified) [NYLIDRIN]
6.3 µM: [4]
> 30 µM: [1] | [3] | Endothelin-1 receptor | [8] | Glucocorticoid receptor | [10]
not listed: [9]
> 10 µM: all other assays above

C#C[C@]1(O)CC[C@H]2[C@@H]3CCC4=CC(=O)CCC4=C3C=C[C@@]21CC [GESTRINONE]
0.01 µM: Glucocorticoid receptor
0.033 µM: [7]
not listed: [1]
> 30 µM: all other assays above

CC1(C)C(C=C(Cl)Cl)C1C(=O)OCc1cccc(Oc2ccccc2)c1 (stereo unspecified) [PERMETHRIN]
> 30 µM: [4] | [6] | Glucocorticoid receptor
not listed: Endothelin-1 receptor
> 10 µM: all other assays above

CC(=O)Nc1c(I)c(C(=O)N[C@H]2C(O)O[C@H](CO)[C@@H](O)[C@@H]2O)c(I)c(N(C)C(C)=O)c1I (stereo partly specified) [METRIZAMIDE]
> 30 µM: [4] | [6]
not listed: Endothelin-1 receptor
> 10 µM: all other assays above

CC[N+]1(C)CCCC(OC(=O)C(O)(c2ccccc2)c2ccccc2)C1 (stereo unspecified) [PIPENZOLATE]
0.97 µM: [4]
not listed: [1]
> 30 µM: all other assays above

C=C[C@@]1(C)CC(=O)[C@]2(O)[C@@]3(C)[C@@H](O)CCC(C)(C)[C@@H]3[C@H](OC(=O)CCN(C)C)[C@H](OC(C)=O)[C@@]2(C)O1
7.8 µM: Motilin receptor | [4]
not listed: [6]
> 30 µM: all other assays above
